Tests used:
primary rat hepatocytes = assay: Inhibition of lipid synthesis ([1-14C]-acetate incorporation) in primary cultures of rat hepatocytes; format: cell-based; details: Hepatocyte, 4 hours, 0-300 μM
Experimental: Compounds were tested for inhibition of lipid synthesis in primary cultures of rat hepatocytes. Male Sprague-Dawley rats were anesthetized with intraperitoneal injection of sodium pentobarbital (80 mg/kg). Rat hepatocytes were isolated essentially as described by the method of Seglen (Seglen, P. O. Hepatocyte suspensions and cultures as tools in experimental carcinogenesis. J. Toxicol. Environ. Health 1979, 5, 551-560). Hepatocytes were suspended in Dulbecco's Modified Eagles Medium containing 25 mM D-glucose, 14 mM HEPES, 5 mM L-glutamine, 5 mM leucine, 5 mM alanine, 10 mM lactate, 1 mM pyruvate, 0.2% bovine serum albumin, 17.4 mM non-essential amino acids, 20% fetal bovine serum, 100 nM insulin and 20 μg/mL gentamycin) and plated at a density of 1.5×10^5 cells/cm^2 on collagen-coated 96-well plates. Four hours after plating, media was replaced with the same media without serum. […] Lipid synthesis incubation conditions were initially assessed to ensure the linearity of [1-^14C])-acetate incorporation into hepatocyte lipids for up to 4 hours. Hepatocyte lipid synthesis inhibitory activity was assessed during incubations in the presence of 0.25 μCi [1-^14C]-acetate/well (final radiospecific activity in assay is 1 Ci/mol) and 0, 1, 3, 10, 30, 100 or 300 μM of compounds for 4 hours. […] Lipid radioactivity was assessed by scintillation spectroscopy in a Packard TopCount NXT.

obese female Zucker rats = assay: Oral daily treatment of chow fed obese female Zucker rats for fourteen days: serum lipids, glycemic indicators, body weight; format: in vivo, rat; details: 14 days, n=4
Experimental: In a number of different experiments, illustrative compounds of the invention are administered daily at a dose of up to 100 mg/kg to chow fed obese female Zucker rats for fourteen days in the morning by oral gavage in 1.5% carboxymethylcellulose/0.2% Tween 20 or 20% ethanol/80% polyethylene glycol (dosing vehicles). Animals are weighed daily. Animals are allowed free access to rodent chow and water throughout the study except on days of blood sampling where food is restricted for six hours prior to blood sampling. Blood glucose is determined after the 6 hour fast in the afternoon without anesthesia from a tail vein. Serum is also prepared from pretreatment blood samples subsequently obtained from the orbital venous plexus (with O2/CO2 anesthesia) and following the fourteenth dose at sacrifice from the heart following O2/CO2 anesthesia. Serums are assayed for lipoprotein cholesterol profiles, triglycerides, total cholesterol, Non-HDL cholesterol, HDL cholesterol, the ratio of HDL cholesterol to that of Non-HDL cholesterol, insulin, non-esterified fatty acids, and beta-hydroxy butyric acid. The percent body weight gain and the ratio of liver to body weight is also determined. These are shown as absolute values or as a percent change of the pretreatment values in Table 1

[1] = Solubility noted on work-up of the tetraol; format: physicochemical
From the text: THP-protected bromo alcohol XA was converted into the corresponding Grignard reagent XB following the standard procedure (Vogel, A. I. “Vogel's Textbook of Practical Organic Chemistry”, 5th Edition, Longman, England, 1989, p. 535). Further coupling of this Grignard reagent in situ with succinic dialdehyde Z prepared by acid-catalyzed ring-opening of commercially available 2,5-dimethoxytetrahydrofuran Y (Fakstorp, J.; Raleigh, D.; Schniepp, L. E. J. Am. Chem. Soc., 1950, 72, 869, House, H. O.; Cronin, T. H. J. Org. Chem., 1965, 30, 1061) at 0 to 5° C. occurs smoothly to give the bis(THP-protected) tetraol XC in high yield (92% after flash column chromatography purification). Acidic hydrolysis of XC in methanol/aqueous H2SO4 was completed in two hours to afford tetraol XI). The product is insoluble in dichloromethane and diethyl ether and could be purified by washing with one of these solvents.

melting point [°C]	Solubility in water [1]	SMILES	IC50 (primary rat hepatocytes) [nM]	% wt. gain (obese female Zucker rats; 100 mg/kg/day oral gavage) [%]	Glucose, Percent of Pre-treatment (obese female Zucker rats; blood glucose after 6 hour fast, 100 mg/kg/day oral) [%]	BHA, Percent of Pre-treatment (obese female Zucker rats; serum beta-hydroxy butyric acid, 100 mg/kg/day oral) [%]	NEFA, Percent of Pre-treatment (obese female Zucker rats; serum non-esterified fatty acids, 100 mg/kg/day oral) [%]	HDL-C/non-HDL-C (obese female Zucker rats; serum ratio, 100 mg/kg/day oral)	TC, Percent of Pre-treatment (obese female Zucker rats; serum total cholesterol, 100 mg/kg/day oral) [%]	TG, Percent of Pre-treatment (obese female Zucker rats; serum triglycerides, 100 mg/kg/day oral) [%]	HDL-C, Percent of Pre-treatment (obese female Zucker rats; serum, 100 mg/kg/day oral) [%]	Insulin, Percent of Pre-treatment (obese female Zucker rats; serum, 100 mg/kg/day oral) [%]	Non-HDL-C, Percent of Pre-treatment (obese female Zucker rats; serum, 100 mg/kg/day oral) [%]
–	–	CC(C)(CO)CCCC(O)CCC(O)CCCC(C)(C)CO (centres unmarked) [Compound A]	1100	13	11	73	143	1	4	43	−19	70	30
85 to 86	–	CC(C)(CO)CCCC(O)CCCC(O)CCCC(C)(C)CO (centres unmarked) [Compound 6.2.2, 2,2,14,14-Tetramethylpentadecane-1,6,10,15-tetraol]	–	–	–	–	–	–	–	–	–	–	–
96 to 97	practically insoluble	CC(C)(CO)CCCC(O)CCC(O)CCCC(C)(C)CO (centres unmarked) [XI), 2,2,13,13-Tetramethyltetradecan-1,6,9,14-tetraol]	–	–	–	–	–	–	–	–	–	–	–

Source: US7838554B2, “Dihydroxyl compounds and compositions for cholesterol management and related uses” (Esperion Therapeutics, Inc., priority 2003, dated 2010)
